Laboratory results from patent US20090227487A1, “METHODS FOR THE CONTROL OF MACROPHAGE-ASSOCIATED INFLAMMATION” (priority 2008, published 2009).

Key:
Format in all cases: cell-based, murine
[1] = test system: Raw 264.7 macrophages; test: PMMA particle-induced TNF-α release from macrophages preincubated with MyD88 inhibitory peptide or control peptide (ELISA); conditions: 100 μM peptide, 24 h preincubation, PMMA particles 0.30% v/v, p<0.01
Procedure: MyD88 inhibitory peptide experiments: The murine monocyte/macrophage cell line Raw 264.7 was cultured in DMEM containing 10% (v/v) FBS (5% CO2, 37° C.). Cells were plated in 24-well tissue culture plates at 1×10^5 cells/well in 1 ml of media with serum and allowed to adhere for 24 hours. […] Following the preincubation period in each group, PMMA particles (Polysciences, 1-10 μm) were added at a dose of 0.30% v/v. Each group was plated in triplicate and the experiment was repeated three times.
Quantification of TNF-α release: Macrophages were exposed to PMMA particles and samples from the culture media were collected at 1, 4, and 12 hours post challenge. TNF-α levels were quantified using ELISA kits. Data were analyzed by ANOVA.
(§1) Preparation of particles: PMMA particles were washed 5× with 70% ethanol and incubated overnight with shaking at 4° C. The particles were then washed 3× with DPBS and resuspended to a concentration of 16% v/v. The particles were free of endotoxin using a high-sensitivity Limulus amoebocyte lysate assay (BioWhittaker).

[2] = test system: Raw 264.7 macrophages; test: PMMA particle-induced TNF-α release from macrophages with or without polymyxin B (ELISA); conditions: 0.30% PMMA particles plus 10 μg/ml polymyxin B
Procedure: as §1
(§2) Polymyxin B preparation: Polymyxin B was prepared fresh before each use and added to cell cultures at a concentration of 10 μg/ml.
Quantification of TNF-α release with wear debris particles: Macrophages were cultured as above. The media was then replaced with 1 ml of media containing one of three conditions: 1) media alone; 2) PMMA particles at a dose of 0.30% v/v; 3) 0.30% PMMA particles plus 10 μg/ml of polymyxin B. TNF-α levels were measured at 1, 4, and 12 hours post challenge.

[3] = test system: Raw 264.7 macrophages; test: LPS-induced TNF-α release from macrophages with or without polymyxin B (ELISA); conditions: 12 h
Procedure: as §2
Raw264.7 macrophage cell culture experiments: The murine monocyte/macrophage cell line Raw 264.7 was cultured in DMEM containing 10% (v/v) FBS (5% CO2, 37° C.). Cells were plated in 24-well tissue culture plates at 1×10^5 cells/well in 1 ml of media with serum and allowed to adhere for 24 hours. The media was then replaced with 1 ml of media containing one of four conditions: 1) media alone; 2) 10 μg/ml of polymyxin B; 3) 500 pg/ml of LPS (E. coli 055:B5, Sigma); 4) 500 pg/ml LPS and 10 μg/ml polymyxin B. TNF-α release was measured at 12 h after incubation using ELISA. Each group was plated in triplicate and the experiment was repeated two times. Data were analyzed by ANOVA. A p-value <0.05 was considered significant.

Substance	decrease of particle-induced TNF-α release ([1]; 4 h post challenge)	decrease of particle-induced TNF-α release ([1]; 12 h post challenge)	effect on particle-induced TNF-α release ([2]; 4 h)	decrease of particle-induced TNF-α release ([2]; 12 h, non-significant)	effect on particle-induced TNF-α release ([2]; overall statement)	TNF-α levels ([3]; 500 pg/ml LPS plus 10 μg/ml polymyxin B)	TNF-α release compared to macrophages alone ([3]; 10 μg/ml polymyxin B alone, no LPS)
MyD88 inhibitory peptide: MyD88 homodimerization inhibitory peptide (Imgenex), which binds the MyD88 monomer, blocking MyD88 activation; possibly DRQIKIWFQNRRMKWKKRDVLPGT of b57	63%	32%	–	–	–	–	–
Polymyxin B	–	–	did not alter	25%	no significant effect	1120 pg/mL	no significant difference
